Measurements from patent US8633245B2, “PAI-1 inhibitor” (Institute of Medicinal Molecular Design, Inc., priority 2008, dated 2014).
Read-outs that look alike come from different tables or passages of the source.

Columns and labels:
[1] = target: T1, recombinant human PAI-1 (Homo sapiens, UniProt P05121); assay: Test Example 2: human PAI-1 inhibitory activity (tPA fluorogenic substrate, pH 7.4 HEPES buffer); assay type: biochemical; conditions: for IC50: human PAI-1, calculated from the inhibition rates
T1 construct: purchased Molecular Innovations, Inc
T1 sequence (P05121 24-402): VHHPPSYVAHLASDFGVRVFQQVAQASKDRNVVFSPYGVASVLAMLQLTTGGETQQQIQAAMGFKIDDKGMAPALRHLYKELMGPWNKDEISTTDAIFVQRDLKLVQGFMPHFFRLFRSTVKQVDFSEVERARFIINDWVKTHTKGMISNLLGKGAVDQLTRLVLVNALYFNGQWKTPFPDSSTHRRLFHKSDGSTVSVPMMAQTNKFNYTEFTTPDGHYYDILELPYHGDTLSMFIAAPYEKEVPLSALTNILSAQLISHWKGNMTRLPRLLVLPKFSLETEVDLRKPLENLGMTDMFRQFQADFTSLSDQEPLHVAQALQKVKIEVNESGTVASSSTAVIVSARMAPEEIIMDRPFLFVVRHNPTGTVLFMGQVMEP
Procedure: 0.1 M HEPES, 0.1 M NaCl. 1 mM EDTA. 0.1% Polyethylene glycol 8,000 (Hampton Research Corporation),
2 mM Dimethyldecylphoshine oxide [Apo-10] (Fluka Corporation)

[2] = target: T1, recombinant human PAI-1; assay: Test Example 1: human PAI-1 inhibitory activity (tPA fluorogenic substrate, pH 7.5 Tris buffer); assay type: biochemical
Procedure: 50 mM Tris, 150 mM NaCl, 10 μg/ml BSA, 0.01% Tween80 (SIGMA-ALDRICH Corporation)

[3] = target: T2, recombinant rat PAI-1 (Rattus norvegicus, UniProt P20961); assay: Test Example 3: rat PAI-1 inhibitory activity (as Test Example 2 with rat PAI-1); assay type: biochemical; conditions: for IC50: calculated from the inhibition rates
T2 construct: purchased Molecular Innovations, Inc
T2 sequence (P20961 24-402): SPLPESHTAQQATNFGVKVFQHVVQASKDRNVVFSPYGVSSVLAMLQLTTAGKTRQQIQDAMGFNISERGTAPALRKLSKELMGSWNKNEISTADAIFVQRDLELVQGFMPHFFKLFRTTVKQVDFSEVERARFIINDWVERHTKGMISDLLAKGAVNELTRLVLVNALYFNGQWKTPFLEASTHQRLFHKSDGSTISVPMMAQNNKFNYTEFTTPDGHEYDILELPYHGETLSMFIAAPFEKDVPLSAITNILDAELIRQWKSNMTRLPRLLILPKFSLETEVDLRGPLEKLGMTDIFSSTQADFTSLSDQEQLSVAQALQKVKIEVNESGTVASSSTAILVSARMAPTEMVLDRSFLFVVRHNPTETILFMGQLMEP
Procedure: To this solution, 6 μl of 80 nM recombinant human PAI-1 (Molecular Innovations, Inc.) solution prepared with Tris buffer was added, and the plate was incubated for 5 minutes at room temperature. Furthermore, 30 μl of 800 IU/ml two-chain tPA (Activity Standard; American diagnostica, inc.) prepared with Tris buffer was added, and the mixed solution was incubated for 15 minutes at room temperature. Then, 30 μl of 400 μM fluorogenic substrate (Pyr-Gly-Arg-MCA; Peptide Institute, Inc.) for tPA prepared with Tris buffer was added and reacted for 30 minutes at room temperature.

[4] = target: T1, recombinant human PAI-1; assay: Test Example 4: human PAI-1 inhibitory activity (amount of PAI-1 bound to plate-coated tPA, ELISA); assay type: binding; conditions: read-out: Inhibition Rate of PAI-1 Activity (%)
Procedure: 100 μl of tPA solution, where one-chain recombinant tPA (hereinafter referred to as tPA; American diagnostica, inc.) had been diluted with Buffer A to achieve a concentration of 10 μg/ml, was added to each well of a 96-well plate (Nunc Maxisorp), and the plate was incubated for one night at 4° C. to be coated with tPA. Then, after suction of tPA solution from the 96-well plate, the plate was rinsed successively with Buffer A and Buffer B.
To Buffer B, solutions of the compound according to the present invention dissolved with DMSO (final DMSO concentration: 0.2%) and recombinant human PAI-1 (Molecular Innovations, Inc.) were added. The mixtures were blended so that the final concentrations would be 0.1 to 3.0 μM and 50 ng/ml respectively, and were incubated for 15 minutes on ice. These mixed solutions were added to the rinsed 96-well plate at 100 μl/well, and incubated for 60 minutes at room temperature. To prepare a calibration curve, PAI-1 solutions without the compound according to the present invention (solutions where the final concentrations being 100, 50, 25, 12.5, 6.25, 3.13, or 1.56 ng/ml PAI-1) were added at 100 μl/well, and the plate was incubated for 60 minutes at room temperature, as standard.
After incubation, the reaction mixture was removed by suction, and each well was rinsed with Wash Buffer. Next, anti-human PAI-1 monoclonal antibody (PROGEN Inc.) diluted with Buffer C to be 3.0 μg/ml was added to the 96-well plate at 100 μl/well, and the plate was incubated for 1 hour at room temperature. After rinsing each well with Wash Buffer, alkaline phosphatase-labeled goat anti-mouse IgG (H+L) (Jackson ImmunoResearch, Inc.) diluted with Buffer D to be 0.12 μg/ml was added at 100 μl/well, and the plate was incubated for 1 hour at room temperature. After rinsing each well with Wash Buffer, 1.0 mg/ml p-Nitrophenyl Phosphate (SIGMA) was added to the 96-well plate at 100 μl/well to start the reaction. After 30 to 60 minutes, 25 μl of 0.5 N NaOH was added to stop the reaction, and the absorbance was measured at 405 nm using a multiplate reader (GENios; TECAN G.M.B.H.). Based on the calibration curve prepared from the standard wells, amounts of PAI-1 bound to tPA in the wells that had been treated with the compound according to the present invention were calculated, and the PAI-1 inhibition rates by the compounds according to the present invention were obtained by the following equation. [PAI-1 Inhibition Rate (%)]=[1−(amount of PAI-1 bound to tPA on the well by treatment with the compound according to the present invention)/(amount of PAI-1 bound to tPA on the well by treatment with PAI-1 solution not including the compound according to the present invention (solution having the final concentration of 50 ng/ml PAI-1)]×100

[5] = Compound Concentration 0.1 μM, HEPES buffer
[6] = Compound Concentration 0.3 μM, HEPES buffer
[7] = Compound Concentration 1 μM, HEPES buffer
[8] = Compound Concentration 3 μM, HEPES buffer
[9] = Compound Concentration 5 μM, Tris buffer
[10] = Compound Concentration 10 μM, Tris buffer
[11] = rat PAI-1, compound concentration 0.3 μM
[12] = rat PAI-1, compound concentration 1 μM
[13] = rat PAI-1, compound concentration 3 μM
[14] = rat PAI-1, compound concentration 10 μM
[15] = read-out: Inhibition Rate of PAI-1 Activity (%)

Row | Compound | Inhibition Rate of PAI-1 Activity (%) [1, 5] | Inhibition Rate of PAI-1 Activity (%) [1, 6] | Inhibition Rate of PAI-1 Activity (%) [1, 7] | Inhibition Rate of PAI-1 Activity (%) [1, 8] | Inhibition Rate of PAI-1 Activity (%) [2, 9] | Inhibition Rate of PAI-1 Activity (%) [2, 10] | Inhibition Rate of PAI-1 Activity (%) [3, 11] | Inhibition Rate of PAI-1 Activity (%) [3, 12] | Inhibition Rate of PAI-1 Activity (%) [3, 13] | Inhibition Rate of PAI-1 Activity (%) [3, 14] | IC50 [1] | IC50 ([3]; rat PAI-1) | other results
1 | CC(C)(C)c1ccc(CN(C(=O)C(=O)O)c2ccc(OCc3ccccc3)c(-c3ccc(OC(F)(F)F)cc3)c2)cc1 [Compound 212] | 5% | 15% | 64% | 98% | 78% | 95% | 8% | 40% | 73% | 67% | – | – | –
2 | CN(C)c1ccc(N(Cc2ccc(C(C)(C)C)cc2)C(=O)C(=O)O)cc1-c1ccc(OC(F)(F)F)cc1 [Compound 214] | 4% | 2% | 40% | 96% | 87% | 93% | 0% | 8% | 77% | 97% | – | – | –
3 | CCC(CC)Oc1ccc(-c2ccc(OC(F)(F)F)cc2)cc1N(CCCc1ccccc1)C(=O)C(=O)O [Compound 233] | – | – | – | – | – | – | – | – | – | – | 900 nM | 1460 nM | inhibition at 0.1 µM ([1]; Compound Concentration 0.1 μM, HEPES buffer, read-out: Inhibition Rate of PAI-1 Activity (%)): 0%; inhibition at 0.3 µM ([1]; Compound Concentration 0.3 μM, HEPES buffer, read-out: Inhibition Rate of PAI-1 Activity (%)): 9%; inhibition at 1 µM ([1]; Compound Concentration 1 μM, HEPES buffer, read-out: Inhibition Rate of PAI-1 Activity (%)): 55%; inhibition at 3 µM ([1]; Compound Concentration 3 μM, HEPES buffer, read-out: Inhibition Rate of PAI-1 Activity (%)): 97%; inhibition at 0.3 µM ([4]; Compound Concentration 0.3 μM): 13%; inhibition at 1 µM ([4]; Compound Concentration 1 μM): 28%; inhibition at 3 µM ([4]; Compound Concentration 3 μM): 50%; inhibition at […] ([2]; Compound Concentration 2.5 μM, Tris buffer, read-out: Inhibition Rate of PAI-1 Activity (%)): 49%; inhibition at 5 µM ([2]; Compound Concentration 5 μM, Tris buffer, read-out: Inhibition Rate of PAI-1 Activity (%)): 78%; inhibition at 10 µM ([2]; Compound Concentration 10 μM, Tris buffer, read-out: Inhibition Rate of PAI-1 Activity (%)): 93%; inhibition at 0.3 µM ([3]; rat PAI-1, compound concentration 0.3 μM, read-out: Inhibition Rate of PAI-1 Activity (%)): 4%; inhibition at 1 µM ([3]; rat PAI-1, compound concentration 1 μM, read-out: Inhibition Rate of PAI-1 Activity (%)): 20%; inhibition at 3 µM ([3]; rat PAI-1, compound concentration 3 μM, read-out: Inhibition Rate of PAI-1 Activity (%)): 93%; inhibition at 10 µM ([3]; rat PAI-1, compound concentration 10 μM, read-out: Inhibition Rate of PAI-1 Activity (%)): > 99%
4 | CCN(CC)c1ccc(N(Cc2ccc(C(C)(C)C)cc2)C(=O)C(=O)O)c(-c2ccc(OC(F)(F)F)cc2)c1 [Compound 208] | – | – | – | – | – | – | – | – | – | – | – | – | inhibition at 1 µM [4]: 13%
5 | CC(C)(C)c1ccc(COc2ccc(-c3ccc(OC(F)(F)F)cc3)cc2OCC(=O)O)cc1 [Compound 105] | – | – | – | – | – | – | – | – | – | – | 1070 nM | 2190 nM | inhibition at 25 µM [2, 15]: > 99%
6 | CC(C)c1ccc(Oc2ccc(CCC(=O)O)c(Oc3ccc(C(C)C)cc3)c2)cc1 [Compound 73] | – | – | – | – | – | – | – | – | – | – | 1270 nM | 2100 nM | inhibition at 25 µM [2, 15]: > 99%
7 | O=C(O)CCc1cc(-c2ccc(OC(F)(F)F)cc2)ccc1OCCCCc1ccccc1 [Compound 102] | – | – | – | – | – | – | – | – | – | – | 1320 nM | 2750 nM | inhibition at 1 µM [4]: 0%
8 | CC(C)(Oc1cccc(-c2ccc(OC(F)(F)F)cc2)c1OCc1ccc(C(C)(C)C)cc1)C(=O)O [Compound 118] | – | – | – | – | – | – | – | – | – | – | 1010 nM | 1920 nM | inhibition at 3 µM [1, 15]: > 99%
9 | CCCCOc1ccc(N(CCCCc2ccccc2)C(=O)C(=O)O)cc1-c1ccc(OC(F)(F)F)cc1 [Compound 227] | – | – | – | – | – | – | – | – | – | – | 1110 nM | 1950 nM | –
10 | CC(C)(C)c1ccc(Oc2cc(-c3ccc(OC(F)(F)F)cc3)ccc2CCC(=O)O)cc1 [Compound 80] | – | – | – | – | – | – | – | – | – | – | 1060 nM | 2200 nM | –
11 | CC(C)Oc1ccc(N(Cc2ccc(C(C)(C)C)cc2)C(=O)C(=O)O)cc1-c1ccc(OC(F)(F)F)cc1 [Compound 211] | 9% | 16% | 43% | 96% | 87% | 96% | 4% | 17% | 78% | 87% | – | – | –
12 | CC(C)(Oc1cc(-c2ccc(OC(F)(F)F)cc2)ccc1OCc1ccc(C(C)(C)C)cc1)C(=O)O [Compound 106] | – | – | – | – | – | – | – | – | – | – | 1150 nM | 1710 nM | inhibition at 10 µM [3, 15]: > 99%
13 | CCCCc1ccc(COc2ccc(-c3ccc(OC(F)(F)F)cc3)cc2CCC(=O)O)cc1 [Compound 30] | 0% | 5% | 25% | 92% | 29% | 70% | 0% | 5% | 47% | 89% | – | – | Inhibition Rate of PAI-1 Activity (%) ([2]; Compound Concentration 25 μM, Tris buffer): >99%
14 | Cc1cc(N(C)C)c(-c2ccc(OC(F)(F)F)cc2)cc1N(Cc1ccc(C(C)(C)C)cc1)C(=O)C(=O)O [Compound 215] | 7% | 18% | 54% | 95% | 90% | 92% | 2% | 16% | 84% | 97% | – | – | –
15 | CC(C)(C)c1ccc(COc2cc(Oc3ccc(OC(F)(F)F)cc3)ccc2CCC(=O)O)cc1 [Compound 78] | – | – | – | – | – | – | – | – | – | – | 1380 nM | 2330 nM | –
16 | CC(C)(C)c1ccc(COc2ccc(Oc3ccc(OC(F)(F)F)cc3)cc2CCC(=O)O)cc1 [Compound 96] | – | – | – | – | – | – | – | – | – | – | 1330 nM | 2900 nM | –
17 | CCN(CC)c1ccc(N(Cc2ccc(C(C)(C)C)cc2)C(=O)C(=O)O)cc1-c1ccc(OC(F)(F)F)cc1 [Compound 213] | 0% | 10% | 48% | 98% | 93% | 84% | 8% | 26% | 90% | 78% | – | – | –
18 | CCCCOc1ccc(-c2ccc(OC(F)(F)F)cc2)cc1N(CCCCc1ccccc1)C(=O)C(=O)O [Compound 231] | – | – | – | – | – | – | – | – | – | – | 1190 nM | 1570 nM | inhibition at 10 µM [3, 15]: > 99%
19 | CC(C)(C)c1ccc(Oc2ccc(Oc3ccc(OC(F)(F)F)cc3)cc2CCC(=O)O)cc1 [Compound 100] | – | – | – | – | – | – | – | – | – | – | 1340 nM | 2300 nM | –
